# Assay results published in publication PMC6934184, “Selective DNA-PKcs inhibition extends the therapeutic index of localized radiotherapy and chemotherapy” (The Journal of Clinical Investigation, 2019).
# Molecular target: T1, KDR (VEGFR2) (Homo sapiens, UniProt P35968)
# T1 construct: purchased Thermo Fisher Scientific (Life Technologies) SelectScreen
# Experiment: SelectScreen Z'LYTE
# Format: biochemical
# Outline: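 SelectScreen broad panel; activity (Z'LYTE, Adapta) plus binding formats. ATP: Km app for CSF1R Z'LYTE; 10 for CAMK1 Adapta. Readout = % per kinase.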
# T1 sequence (P35968 20-1356): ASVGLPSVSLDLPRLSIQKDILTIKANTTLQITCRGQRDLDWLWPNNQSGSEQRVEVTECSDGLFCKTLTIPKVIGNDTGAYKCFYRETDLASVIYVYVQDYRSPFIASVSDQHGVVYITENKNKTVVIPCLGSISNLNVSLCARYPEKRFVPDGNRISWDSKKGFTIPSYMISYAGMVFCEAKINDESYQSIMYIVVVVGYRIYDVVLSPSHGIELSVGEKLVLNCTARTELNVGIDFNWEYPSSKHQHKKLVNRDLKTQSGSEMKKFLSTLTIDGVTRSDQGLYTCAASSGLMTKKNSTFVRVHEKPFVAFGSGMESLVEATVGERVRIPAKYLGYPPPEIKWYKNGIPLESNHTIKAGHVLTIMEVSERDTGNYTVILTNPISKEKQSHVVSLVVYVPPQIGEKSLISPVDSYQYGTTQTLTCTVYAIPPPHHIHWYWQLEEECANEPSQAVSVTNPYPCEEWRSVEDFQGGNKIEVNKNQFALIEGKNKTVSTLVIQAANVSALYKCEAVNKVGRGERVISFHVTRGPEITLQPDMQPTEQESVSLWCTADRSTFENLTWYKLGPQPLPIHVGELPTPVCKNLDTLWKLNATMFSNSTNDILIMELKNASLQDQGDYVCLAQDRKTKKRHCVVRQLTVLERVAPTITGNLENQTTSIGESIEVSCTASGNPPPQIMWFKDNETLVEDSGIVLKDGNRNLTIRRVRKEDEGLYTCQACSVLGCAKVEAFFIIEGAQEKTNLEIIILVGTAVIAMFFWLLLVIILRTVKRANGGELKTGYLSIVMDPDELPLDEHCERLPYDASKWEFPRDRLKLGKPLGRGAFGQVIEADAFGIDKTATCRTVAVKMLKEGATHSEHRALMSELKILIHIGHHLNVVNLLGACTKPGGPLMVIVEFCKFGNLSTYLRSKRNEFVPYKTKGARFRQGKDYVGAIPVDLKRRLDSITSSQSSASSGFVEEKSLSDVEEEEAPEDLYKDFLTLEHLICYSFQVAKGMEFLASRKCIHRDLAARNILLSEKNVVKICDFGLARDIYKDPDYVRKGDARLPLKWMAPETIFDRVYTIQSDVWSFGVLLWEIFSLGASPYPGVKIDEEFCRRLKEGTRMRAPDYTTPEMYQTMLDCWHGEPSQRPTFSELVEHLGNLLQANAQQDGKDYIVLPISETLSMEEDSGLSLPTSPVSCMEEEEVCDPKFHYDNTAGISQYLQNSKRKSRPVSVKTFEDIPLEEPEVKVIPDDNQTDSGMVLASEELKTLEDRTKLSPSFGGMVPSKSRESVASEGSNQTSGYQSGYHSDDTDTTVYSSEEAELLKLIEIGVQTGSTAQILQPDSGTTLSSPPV
structure (smiles),measurement,value
CN(C(=O)CN1CCOCC1)c1ccc2sc3c(-c4cccc5c(=O)cc(N6CC7CCC(C6)O7)oc45)cccc3c2c1 [NU5455],inhibition at 1 µM,1.8%
